Measured values: patent US8648059B2, “Use of epicatechin and derivatives and salts thereof for cardiac protection of ischemic myocardium and to ameliorate adverse cardiac remodeling” (The Regents of the University of California, priority 2008, dated 2014)

How the values were obtained:
Type in all cases: in vivo, rat
[1] = system: Sprague-Dawley rats; assay: Permanent coronary occlusion infarct size (Example 2); conditions: epicatechin 1 mg/kg/day oral
Description: Determination of Infarct Size: Terminal study hearts were excised and weighed. In 48 h hearts, the area at risk was determined by the reocclusion of the snare and infusion of trypan blue (0.4%) into the cannulated aorta. […] Computer assisted image analysis was used using blinded operators. For 3 week studies hearts were processed as above and sectioned to identify the infarct (i.e. scar) area. The images of unfixed, stained rings were also used to measure internal and external chamber diameters, anterior and septal wall thicknesses. Adult male Sprague-Dawley rats (Harlan, Indianapolis, Ind.) weighing ˜250 g were used. […] Sigma-Aldrich, St. Louis, Mo.) or vehicle (water) was administered orally by gavage once/day beginning 10 days before thoracotomy and continuing until the time of the terminal study (48 h or 3 weeks). Thoracotomy was performed at day 10. In the sham group, the chest was only opened and closed; no artery was permanently occluded. […] At 48 hours the animals were anesthetized and hemodynamics recorded. The heart was excised and for infarcted animals only the infarct size and heart structure (morphometry) were determined. […] At 3 weeks the animals were anesthetized and hemodynamics recorded. The heart was excised and for infarcted animals only the infarct size and heart structure (morphometry) were determined.

[2] = system: Sprague-Dawley rats; assay: Cardiac morphometry after permanent coronary occlusion (Example 2); conditions: epicatechin
Description: Determination of Infarct Size: Terminal study hearts were excised and weighed. In 48 h hearts, the area at risk was determined by the reocclusion of the snare and infusion of trypan blue (0.4%) into the cannulated aorta. […] Computer assisted image analysis was used using blinded operators. For 3 week studies hearts were processed as above and sectioned to identify the infarct (i.e. scar) area. The images of unfixed, stained rings were also used to measure internal and external chamber diameters, anterior and septal wall thicknesses. Adult male Sprague-Dawley rats (Harlan, Indianapolis, Ind.) weighing ˜250 g were used. […] Sigma-Aldrich, St. Louis, Mo.) or vehicle (water) was administered orally by gavage once/day beginning 10 days before thoracotomy and continuing until the time of the terminal study (48 h or 3 weeks). Thoracotomy was performed at day 10. In the sham group, the chest was only opened and closed; no artery was permanently occluded. For the infarct group, the left anterior descending coronary artery was permanently occluded. In the 48 hour treatment arm, the animals were allowed to heal with treatment of epicatechin at 1 mg/kg/day continued for 48 hours. At 48 hours the animals were anesthetized and hemodynamics recorded. The heart was excised and for infarcted animals only the infarct size and heart structure (morphometry) were determined. In the 3 week treatment arm, the animals were allowed to heal for 3 weeks with daily treatment of epicatechin at 1 mg/kg/day. At 3 weeks the animals were anesthetized and hemodynamics recorded. The heart was excised and for infarcted animals only the infarct size and heart structure (morphometry) were determined.

[3] = system: Sprague-Dawley rats; assay: Ischemia-reperfusion (45 min coronary ligation) infarct size, oral epicatechin pre-treatment (Example 1); conditions: for infarct area: epicatechin 1 mg/kg/day oral
Description: (§1) Adult male Sprague-Dawley rats (Harlan, Indianapolis, Ind.) weighing ˜250 g were used. Epicatechin (1 mg/kg/day; Sigma-Aldrich, St. Louis, Mo.) or vehicle (water) was administered orally by gavage once/day beginning 10 days before thoracotomy and continuing until the time of the terminal study (48 h or 3 weeks). A subgroup of “normal” animals were treated with water or epicatechin for 10 day and were used to evaluate the effects of epicatechin on hemodynamics. For 48 hr studies the groups included IR and IR+10 day epicatechin. For 3 week studies, the groups included sham, sham+10 day epicatechin, IR and IR+10 day epicatechin.
Ischemia-reperfusion: Animals were anesthetized by intraperitoneal injection of ketamine (100 mg/kg) and xylazine (10 mg/kg), intubated, and positive-pressure ventilated. Following a left thoracotomy, the left anterior descending coronary artery was ligated for 45 min, (except in shams) released and the suture left in place. The chest was closed and animals allowed to fully recover. Successful occlusion and reperfusion were verified by visual inspection of left ventricle (LV) color. Sham animals were treated identically, except the ligature was not tightened.
Determination of Infarct Size: Terminal study hearts were excised and weighed. In 48 h hearts, the area at risk was determined by the reocclusion of the snare and infusion of trypan blue (0.4%) into the cannulated aorta. Hearts were sectioned at 0 mmHg into five 2 mm rings and stained using triphenyltetrazolium chloride to determine the infarct area. Computer assisted image analysis was used using blinded operators. For 3 week studies hearts were processed as above and sectioned to identify the infarct (i.e. scar) area. The images of unfixed, stained rings were also used to measure internal and external chamber diameters, anterior and septal wall thicknesses.
Statistical Analysis Comparisons between means±S.E.M were analyzed by student's t-tests or one-way ANOVA followed by Bonferroni post-hoc. P<0.05 was considered statistically significant. The investigator who analyzed the data was blinded to what group (control vs. treatment with epicatechin) the animal belonged to.

[4] = system: Sprague-Dawley rats; assay: Hemodynamics after permanent coronary occlusion (Example 2); conditions: for LVEDP / LVPSP / MAP: epicatechin; for HR: epicatechin 1 mg/kg/day
Description: (§2) Hemodynamics: All animals were weighed and anesthetized with 5% isoflurane (maintenance at 1-2%). Arterial (carotid) and LV pressures were measured using a micromanometer just prior to sacrifice and data digitally recorded.
Adult male Sprague-Dawley rats (Harlan, Indianapolis, Ind.) weighing ˜250 g were used. Epicatechin (1 mg/kg/day; Sigma-Aldrich, St. Louis, Mo.) or vehicle (water) was administered orally by gavage once/day beginning 10 days before thoracotomy and continuing until the time of the terminal study (48 h or 3 weeks). Thoracotomy was performed at day 10. In the sham group, the chest was only opened and closed; no artery was permanently occluded. For the infarct group, the left anterior descending coronary artery was permanently occluded. In the 48 hour treatment arm, the animals were allowed to heal with treatment of epicatechin at 1 mg/kg/day continued for 48 hours. At 48 hours the animals were anesthetized and hemodynamics recorded. The heart was excised and for infarcted animals only the infarct size and heart structure (morphometry) were determined. In the 3 week treatment arm, the animals were allowed to heal for 3 weeks with daily treatment of epicatechin at 1 mg/kg/day. At 3 weeks the animals were anesthetized and hemodynamics recorded. The heart was excised and for infarcted animals only the infarct size and heart structure (morphometry) were determined.
Methods of determining infarct size, hemodynamics, tissue collection statistical analysis is as described in Example 1.

[5] = system: Sprague Dawley rats; assay: IR (30 minutes ischemia) infarct size, single IV therapy 15 min before reperfusion
Description: Lateral thoracotamy with 30 minutes ischemia>reperfusion was performed a treated per the groups above 15 min before reperfusion IV in the femoral artery. Animals were humanely sacrificed and the hearts were then section and stained to examine tissue injury.

[6] = system: Sprague-Dawley rats; assay: Hemodynamics in normal, sham and IR rats (Example 1)
Description: as §1, §2
Hemodynamics: Hemodynamics (Table 1A) were measured in normal and normal+10 d epicatechin. […] Values shown are mean ±SEM. Statistical analysis was done by ANOVA except where denoted. In the IR group the rats are fed the control and ischemia is induced (by temporary occlusion of the coronary artery). In the IR+epicatechin the rats are given epicatechin and ischemia is induced. […] The purpose of these two groups was to determine baseline hemodynamics.

[7] = system: Sprague-Dawley rats; assay: Cardiac morphometry 3 weeks after IR (Example 1); conditions: epicatechin
Description: Adult male Sprague-Dawley rats (Harlan, Indianapolis, Ind.) weighing ˜250 g were used. […] Sigma-Aldrich, St. Louis, Mo.) or vehicle (water) was administered orally by gavage once/day beginning 10 days before thoracotomy and continuing until the time of the terminal study (48 h or 3 weeks). A subgroup of “normal” animals were treated with water or epicatechin for 10 day and were used to evaluate the effects of epicatechin on hemodynamics. […] Determination of Infarct Size: Terminal study hearts were excised and weighed. In 48 h hearts, the area at risk was determined by the reocclusion of the snare and infusion of trypan blue (0.4%) into the cannulated aorta. […] Computer assisted image analysis was used using blinded operators. For 3 week studies hearts were processed as above and sectioned to identify the infarct (i.e. scar) area. The images of unfixed, stained rings were also used to measure internal and external chamber diameters, anterior and septal wall thicknesses.

[8] = 48 h IR, 10 d epicatechin pretreatment

Compound: Oc1cc(O)c2c(c1)O[C@H](c1ccc(O)c(O)c1)[C@H](O)C2 [epicatechin]
- reduction of infarct size ([1]; 3 weeks after infarction (permanent occlusion), FIG. 9a): 33%
- reduction of infarct size ([1]; 48 h after permanent coronary occlusion, FIG. 8): 50%
- AW thickness ([2]; PCO 3 week): 0.446 ± 0.04 mm
- HW/BW ([2]; PCO 3 week): 4.4 ± 0.7
- Inner LV diam. ([2]; PCO 3 week): 0.546 ± 0.046 mm
- Outer LV diam. ([2]; PCO 3 week): 1.495 ± 0.031 mm
- SW thickness ([2]; PCO 3 week): 0.475 ± 0.02 mm
- AW thickness ([2]; PCO 48 h): 0.57 ± 0.03 mm
- SW thickness ([2]; PCO 48 h): 0.57 ± 0.02 mm
- AW thickness ([2]; sham, 3 weeks): 0.58 ± 0.05 mm
- HW/BW ([2]; sham, 3 weeks): 3.82 ± 0.3
- Inner LV diam. ([2]; sham, 3 weeks): 0.490 ± 0.046 mm
- Outer LV diam. ([2]; sham, 3 weeks): 1.469 ± 0.075 mm
- SW thickness ([2]; sham, 3 weeks): 0.38 ± 0.04 mm
- AW thickness ([2]; sham, 48 h): 0.54 ± 0.05 mm
- SW thickness ([2]; sham, 48 h): 0.33 ± 0.06 mm
- infarct area ([3]; 3 weeks after IR, control 50.4±5.6%, p=0.05): 33.7±5.5%
- reduction in scar size ([3]; 3 weeks post-IR): ~33%
- infarct area ([3]; 48 h after IR, 10 day pre-treatment, control 51.4±1.8%, P<0.0001): 26.3±3.4%
- reduction in infarct size ([3]; temporary occlusion experiment, FIG. 1, vs vehicle): ~50%
- LVEDP ([4]; PCO 3 week): 11 ± 1 mmHg
- LVPSP ([4]; PCO 3 week): 102 ± 3 mmHg
- MAP ([4]; PCO 3 week): 82 ± 2 mmHg
- HR ([4]; PCO 3 week): 268 ± 10 bpm
- LVEDP ([4]; PCO 48 h): 5.8 ± 1.2 mmHg
- LVPSP ([4]; PCO 48 h): 107 ± 4 mmHg
- MAP ([4]; PCO 48 h): 91 ± 5 mmHg
- HR ([4]; PCO 48 h): 342 ± 8 bpm
- HR ([4]; sham, 3 weeks after thoracotomy): 303 ± 10 bpm
- LVEDP ([4]; sham, 3 weeks): 6.4 ± 0.9 mmHg
- LVPSP ([4]; sham, 3 weeks): 118 ± 4 mmHg
- MAP ([4]; sham, 3 weeks): 92 ± 4 mmHg
- LVEDP ([4]; sham, 48 h): 4.3 ± 1.2 mmHg
- LVPSP ([4]; sham, 48 h): 102 ± 2 mmHg
- MAP ([4]; sham, 48 h): 83 ± 2 mmHg
- HR ([4]; sham, 48 h after thoracotomy): 334 ± 10 bpm
- reduction of IR induced infarct size ([5]; at 48 h, IV 10 mg/kg): 36%
- HR (heart rate) ([6]; 3 wk IR, epicatechin): 302 ±18^ bpm
- LVEDP ([6]; 3 wk IR, epicatechin): 5.5 ± 1.5 mmHg
- LVPSP ([6]; 3 wk IR, epicatechin): 108 ± 4 mmHg
- MAP ([6]; 3 wk IR, epicatechin): 85 ± 4 mmHg
- LVEDP (left ventricular end diastolic pressure) [6, 8]: 4.9 ± 0.5 mmHg
- LVPSP (left ventricular peak systolic pressure) [6, 8]: 110 ± 5 mmHg
- MAP (mean aortic pressure) [6, 8]: 90 ± 5 mm Hg
- HR (heart rate) ([6]; 48 h IR, 10 d epicatechin pretreatment, mean ± SEM): 373 ± 17 bpm
- LVEDP (left ventricular end diastolic pressure) ([6]; normal rats, 10 d epicatechin): 6.7 ± 1.3 mmHg
- LVPSP (left ventricular peak systolic pressure) ([6]; normal rats, 10 d epicatechin): 112 ± 14 mmHg
- MAP (mean aortic pressure) ([6]; normal rats, 10 d epicatechin): 99 ± 10 mm Hg
- HR (heart rate) ([6]; normal rats, 10 d epicatechin 1 mg/kg/day oral, mean ± SEM): 346 ± 8 bpm
- HR (heart rate) ([6]; sham, 3 wk study, epicatechin): 328 ± 11 bpm
- LVEDP ([6]; sham, 3 wk study, epicatechin): 2.6 ± 0.2 mmHg
- LVPSP ([6]; sham, 3 wk study, epicatechin): 116 ± 6.2 mmHg
- MAP ([6]; sham, 3 wk study, epicatechin): 92 ± 11 mmHg
- blood pressure ([6]; ten days of treatment in noninfarcted animals): did not reduce blood pressure
- AW thickness ([7]; 3 wk IR): 0.41 ± 0.02 mm
- HW/BW (heart weight/body weight) ([7]; 3 wk IR): 4.5 ± 0.2
- Inner LV diam. ([7]; 3 wk IR): 0.55 ± 0.05 mm
- Outer LV diam. ([7]; 3 wk IR): 1.6 ± 0.04 mm
- SW thickness ([7]; 3 wk IR): 0.49 ± 0.03 mm
- AW thickness ([7]; sham, 3 wk study): 0.53 ± 0.05 mm
- HW/BW (heart weight/body weight) ([7]; sham, 3 wk study): 3.2 ± 0.5
- Inner LV diam. ([7]; sham, 3 wk study): 0.52 ± 0.08 mm
- Outer LV diam. ([7]; sham, 3 wk study): 1.6 ± 0.1 mm
- SW thickness ([7]; sham, 3 wk study): 0.47 ± 0.04 mm

Compound: C[C@H]1c2cccc(O)c2C(O)=C2C(=O)[C@]3(O)C(O)=C(C(N)=O)C(=O)[C@@H](N(C)C)[C@@H]3[C@@H](O)[C@@H]21 [DOX, doxycycline]
- reduction of IR induced infarct size ([5]; at 4 hours, IV 5 mg/kg): ~10%

Compound: catechin
- area at risk ([5]; methods of Example 5, FIG. 16): no effect
- infarction size ([5]; methods of Example 5, FIG. 16): no effect
